Molecules are shown by their SMILES.

This is an account of results in patent US5283361A, “N-hydroxy-N-[3-[2-(halophenylthio)phenyl]prop-2-enyl]ureas as lipoxygenase inhibitors” (Eli Lilly and Company, priority 1992, dated 1994).

For experiment [1], the system named is 5-LO. The experiment in a line: In vitro antigen (ovalbumin)-induced contraction of sensitized guinea pig tracheal strips, Schultz-Dale reaction (Inhibition of 5-LO). It counts as cell-based. Conditions: Cavia porcellus, antigen (OA) 30 ng/ml, 30 min preincubation, with indomethacin 5 μM and pyrilamine 10 μM. As for the experimental part: Male, Hartley strain guinea-pigs (200-250 g) were actively sensitized by three injections of ovalbumin (OA, 10 mg/kg). The OA was administered intraperitoneally on Days 1 and 3 and subcutaneously on Day 5. In vitro experiments were performed 21-25 days later.
On the day of the experiment, guinea pigs were killed by asphyxiation with CO2 and the tracheas removed, cleaned of surrounding connective tissue and cut into spiral strips. Each strip was divided in half for paired experiments. Tissues were placed in 10 ml jacketed tissue baths maintained at 37° C. and attached with cotton thread to Grass force-displacement transducers (FT03C). […] Tracheal strips were bathed in modified Krebs' solution of the following composition (millimolar) NaCl, 118.2;KCl, 4.6; CaCl2.2H2 O, 2.5; MgSO4.7H2 O, 1.2; NaHCO3,24.8; KH2 PO4, 1.0; and dextrose, 10.0. The buffer contained indomethacin (5 μM) which potentiated the contractions of the cysteinyl leukotriene (LT) by removing the influence of cyclooxygenase products. The tissue baths were aerated with 95% O2 :5% CO2. Tracheal strips were placed under a resting tension of 2 g, and the tissues were allowed a minimal stabilization period of 60 minutes before undergoing experimentation. Bath fluid was changed at 15 minute intervals during the stabilization period.
Cumulative concentration-response curves were obtained from tracheal strips by increasing the agonist concentration in the organ bath by half-log increments while the previous concentration remained in contact with the tissues (van Rossum, Arch. Int. Pharmacodyn. Ther., 143, 299-330 (1963)). Agonist concentration was increased after reaching the plateau of the contraction elicited by the preceeding concentration. One concentration-response curve was obtained from each tissue. To minimize variability between tissues, contractile responses were expressed as a percentage of the maximal response obtained with carbachol (10 μM), added to the bath at the end of the concentration-response curve. Initially, tissues were challenged with carbachol (10 μM) following the 60 minute stabilization period to insure tissue viability. After recording the maximal response to the initial carbachol challenge, the tissues were washed and reequilibrated for 60 minutes before starting the experimental protocol.
To evaluate the effects of novel 5-lipoxygenase inhibitors in the Schultz-Dale reaction, each compound was incubated with the tissues 30 minutes before starting the curves. Vehicle (DMSO) was given to the paired control tissue. Pyrilamine (10 μM) was added to all baths at this time to block the actions of released histamine. Responses obtained at the antigen concentration of 30 ng/ml were recorded in the absence and presence of drug and percent inhibition was calculated for each pair of tissues. IC50 valves were determined by linear regression.

Experiment [2] relates to 5-LO. The experiment in a line: In vivo ovalbumin-induced increase in intratracheal pressure in passively sensitized guinea pigs (Inhibition of 5-LO). Also on record: species or system guinea pig. Conditions: OA-induced increase in tracheal pressure; for Inhibition of 5-LO In Vivo Percent Inhibition (dose of 10 mg/kg): dose of 10 mg/kg (footnote a), po, 2 hr. As for the experimental part:
Male Hartley guinea pigs (350-500 g) were passively sensitized against ovalbumin by i.p. administration of 0.3 ml of antiserum 2 days preceeding the experiment. Hyperimmune serum was prepared from actively sensitizing male guinea pigs conditioned with 2 mg of ovalbumin in 50% Complete Freund's Adjuvant i.p. on days 1 and 5. On day 21, the animals were bled and the serum collected and stored at -20° C. On the day of the experiment the passively sensitized guinea pigs were anesthetized with 35 to 40 mg/kg of pentobarbital sodium given i.p. The right jugular vein was cannulated with Tygon microbore tubing (o.d.=03) connected to a syringe for administration of selected drugs. Blood pressure was measured with a Statham pressure transducer connected to a Tygon catheter placed in the left carotid artery. The trachea was cannulated and each animal was ventilated with room air by means of a Harvard rodent respirator set to deliver a tidal volume of 1 ml/100 g body weight with a rate of 60 breaths/minute. Succinylcholine (5 mg/kg) was given i.v. to suppress spontaneous respiration. Intratracheal pressure, an index of total pulmonary resistance, was measured with a Statham pressure transducer connected to a T-tube on the tracheal cannula. […] Body temperature was maintained within normal limits by means of a Deltaphase isothermal pad. Prior to surgery, test compound or vehicle (PEG 400) was administered to each guinea pig by oral gavage and OA challenge was at designated times following oral dosing. The animals were pretreated i.v. with pyrilamine (5 mg/kg), propranolol (1 mg/kg) and indomethacin (10 mg/kg) 5 minutes prior to the OA challenge. OA-induced increase in tracheal pressure was expressed as a percentage of the maximal pressure obtained by clamping the trachea with a hemistat. To determine the effect of each drug, a % inhibition value was calculated from the vehicle and drug treated animals at each concentration tested.

Regarding `NC(=O)N(O)C/C=C/c1c(F)cccc1Sc1ccc(F)cc1` [Example 1, N-hydroxy-N-[3-[2-(4-fluorophenylthio)-6-fluorophenyl]-prop-2-enyl]urea], in the experiment on 5-LO [1], the 50% inhibitory concentration (IC50) was 0.05 µM. Further, the “Inhibition of 5-LO In Vivo Percent Inhibition at 30 mg/kg, po, 2 hr.” value in the experiment with 5-LO [2] is reported as 97%.
Taken in the same sequence, the figures for `NC(=O)N(O)C/C=C/c1ccccc1Sc1ccc(F)cc1` [Example 2, N-hydroxy-N-[3-[2-(4-fluorphenylthio)phenyl]prop-2-enyl]urea] were 0.1 µM and 96%.
Take `NC(=O)N(O)C/C=C/c1ccc(F)cc1Sc1ccc(F)cc1` [Example 3, N-hydroxy-N-[3-[2-(4-fluorophenylthio)-4-fluorophenyl]prop-2-enyl]urea]: the IC50 with 5-LO [1] is 0.19 µM. Also, the “Inhibition of 5-LO In Vivo Percent Inhibition (dose of 10 mg/kg)” value in the experiment on 5-LO [2] amounted to 43%.
Consider `NC(=O)N(O)C/C=C/c1cc(F)ccc1Sc1ccc(F)cc1` [Example 4, N-hydroxy-N-[3-[2-(4-fluorophenylthio)-5-fluorophenyl]prop-2-enyl]urea], for which the half-inhibitory concentration (IC50) in the experiment on 5-LO [1] worked out at 0.23 µM. Moreover, the “Inhibition of 5-LO In Vivo Percent Inhibition at 30 mg/kg, po, 2 hr.” value with 5-LO [2] turned out to be 52%.
Turning to `NC(=O)N(O)C/C=C/c1ccccc1Sc1ccc(Cl)cc1` [Example 5, N-hydroxy-N-[3-[2-(4-chlorophenylthio)phenyl]prop-2-enyl]urea], in the experiment with 5-LO [1], the IC50 came out at 0.14 µM. The “Inhibition of 5-LO In Vivo Percent Inhibition at 30 mg/kg, po, 2 hr.” value in the experiment with 5-LO [2] is recorded as 95%.
Taken in the same sequence, the figures for `NC(=O)N(O)C/C=C/c1cccc(F)c1Sc1ccc(F)cc1` [Example 6, N-hydroxy-N-[3-[2-(4-fluorophenylthio)-3-fluorophenyl]prop-2-enyl]urea] were 0.13 µM and 81%.
As for `NC(=O)N(O)C/C=C/c1cccc(F)c1Sc1ccc(Cl)cc1` [Example 7, N-hydroxy-N-[3-[2-(4-chlorophenylthio)-3-fluorophenyl]prop-2-enyl]urea], the half-inhibitory concentration (IC50) in the experiment with 5-LO [1] came to 0.09 µM. Besides, the “Inhibition of 5-LO In Vivo Percent Inhibition (dose of 10 mg/kg)” value in the experiment on 5-LO [2] came to 77%.
`NC(=O)N(O)C/C=C/c1c(F)cccc1Sc1ccc(Cl)cc1` [Example 8]: the IC50 in the experiment with 5-LO [1] turned out to be 0.13 µM. Further, the “Inhibition of 5-LO In Vivo Percent Inhibition at 30 mg/kg, po, 2 hr.” value in the experiment with 5-LO [2] worked out at 46%.
